The text below walks through data of article PMC11562494 (BMC Chemistry, 2024).

For assay [1], the system named is S. aureus. As to conditions: cited from earlier work.
Assay [2] has as its system WI38 cells. As to conditions: read-out: WI-38 IC50 ± SD; normal WI38 cells, MTT; cited from earlier work.
Assay [3] addresses DNA gyrase A (Escherichia coli, UniProt P0AES4). Nature of the assay: DNA gyrase supercoiling assay. The assay is classed as biochemical. As to conditions: IC50 ± SD DNA gyrase A, E. coli DNA gyrase supercoiling.
Assay [4] relates to E. coli. Nature of the assay: Time-kill kinetic test. It is filed as cell-based. As to conditions: 1x MIC.
In assay [5] the test system is C. albicans. Nature of the assay: Broth dilution MIC/MFC. The assay is classed as cell-based, Candida albicans. As to conditions: for MFC: read-out: MFC C. albicans.
In assay [6] the test system is S. cerevisiae. Put plainly: Broth dilution MIC/MFC. It is filed as cell-based, Saccharomyces cerevisiae. As to conditions: for MFC / MIC: Saccharomyces cerevisiae; for MFC: read-out: MFC S. cerevisiae; for MIC: read-out: MIC S. cerevisiae.
Assay [7] concerns WI38 cells. Nature of the assay: In vitro cytotoxicity MTT assay. As to conditions: Homo sapiens, WI-38, 48 h, read-out: WI-38 IC50 ± SD.
Assay [8] relates to S. faecalis. Nature of the assay: Broth dilution MIC/MBC. As to conditions: for MBC / MIC: Enterococcus faecalis; for MBC: read-out: MBC S. faecalis; for MIC: read-out: MIC S. faecalis. It is filed as cell-based, Streptococcus faecalis.
The subject of assay [9] is E. coli. Put plainly: Broth dilution MIC/MBC. It is filed as cell-based, Escherichia coli. As to conditions: for MBC / MIC: Escherichia coli; for MBC: read-out: MBC E. coli; for MIC: read-out: MIC E. coli.
The subject of assay [10] is E. cloacae. Nature of the assay: Broth dilution MIC/MBC. As to conditions: for MBC / MIC: Enterobacter cloacae; for MBC: read-out: MBC E. cloacae; for MIC: read-out: MIC E. cloacae. The assay is classed as cell-based, Enterobacter cloacae.
Assay [11] concerns B. pumilus. Nature of the assay: Broth dilution MIC/MBC. It is filed as cell-based, Bacillus pumilus. As to conditions: for MBC / MIC: Bacillus pumilus; for MBC: read-out: MBC B. pumilus; for MIC: read-out: MIC B. pumilus.
For assay [12], the system named is E. coli. As to conditions: cited from earlier work.
The test system of assay [13] is Aspergillus fumigatus. As to conditions: cited from earlier work.
Assay [14] relates to C. albicans. As to conditions: cited from earlier work.
Assay [15] concerns S. aureus. As to conditions: cited from earlier work. The source holds these as a separate data set.
The subject of assay [16] is B. subtilis. As to conditions: cited from earlier work.
Assay [17] relates to Escherichia coli. As to conditions: cited from earlier work.
Assay [18] concerns Pseudomonas aeruginosa. As to conditions: cited from earlier work.
Assay [19] has as its system methicillin-resistant S. aureus. As to conditions: cited from earlier work.

The structures appear in SMILES notation. Values after ≈ are worked out from the molar mass of the structure shown. Values joined by “and” are separate entries in the source; they are usually repeats but may differ in a detail not shown here. Equal values may be shown once. Read-outs that look alike come from different tables or passages of the source.

Chain of DNA gyrase A (P0AES4 whole entry): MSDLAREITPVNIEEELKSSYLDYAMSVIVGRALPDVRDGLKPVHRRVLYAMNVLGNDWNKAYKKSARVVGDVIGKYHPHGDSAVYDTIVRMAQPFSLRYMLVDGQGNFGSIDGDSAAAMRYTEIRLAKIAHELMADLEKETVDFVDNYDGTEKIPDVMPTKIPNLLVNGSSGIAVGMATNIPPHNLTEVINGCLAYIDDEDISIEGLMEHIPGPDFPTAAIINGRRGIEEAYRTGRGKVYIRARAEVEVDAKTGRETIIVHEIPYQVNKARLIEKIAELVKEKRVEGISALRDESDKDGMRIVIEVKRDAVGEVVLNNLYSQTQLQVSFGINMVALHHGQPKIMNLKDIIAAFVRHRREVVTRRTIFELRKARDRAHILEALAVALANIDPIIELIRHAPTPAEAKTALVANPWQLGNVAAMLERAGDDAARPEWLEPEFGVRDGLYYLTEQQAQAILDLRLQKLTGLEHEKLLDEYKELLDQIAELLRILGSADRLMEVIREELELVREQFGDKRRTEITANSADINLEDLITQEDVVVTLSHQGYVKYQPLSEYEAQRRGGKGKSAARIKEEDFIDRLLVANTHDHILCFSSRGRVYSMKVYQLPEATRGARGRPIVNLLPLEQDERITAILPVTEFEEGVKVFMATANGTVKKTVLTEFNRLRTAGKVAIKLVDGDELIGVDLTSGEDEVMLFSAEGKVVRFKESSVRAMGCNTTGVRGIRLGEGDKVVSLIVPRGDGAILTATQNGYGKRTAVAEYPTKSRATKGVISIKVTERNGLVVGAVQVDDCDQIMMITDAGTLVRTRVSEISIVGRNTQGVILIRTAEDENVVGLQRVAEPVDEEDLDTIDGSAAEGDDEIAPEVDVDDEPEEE

`O=C(O)c1cn(C2CC2)c2cc(N3CCNCC3)c(F)cc2c1=O` [Cipro., ciprofloxacin]: the “IZ S. aureus” value in assay [1] was 22 mm. Besides, the IC50 in [2] was 23.9 ± 1.58 µM.
In the case of `N#Cc1c(-c2ccc(OCc3ccccc3)cc2)c(C(N)=O)c(N)n(N)c1=O` [Compound 3d, 1,2-diamino-4-(4-(benzyloxy)phenyl)-5-cyano-6-oxo-1,6-dihydropyridine-3-carboxamide], the IC50 in assay [3] was 4.48 µM and 4.49 µM. Also, the “Time to bactericidal activity against E. coli” value in [4] was 90 to 120 min and 90 min. Moreover, the “MFC/ MIC ratio C. albicans” value in assay [5] is recorded as 4. Also, the MFC in assay [5] (Candida albicans) was found to be 500 µg/mL (≈ 1330 µM). In assay [6], the “MFC/ MIC ratio S. cerevisiae” value is 2, the MFC came out at 62.5 µg/mL (≈ 166 µM) and the minimum inhibitory concentration (MIC) was found to be 31.3 µg/mL (≈ 83.4 µM). Further, the IC50 in assay [7] was 48.8 ± 2.07 µM. In [8], the “MBC/ MIC ratio S. faecalis” value is given as 4, the MBC was found to be 62.5 µg/mL (≈ 166 µM) and the minimum inhibitory concentration (MIC) came to 15.6 µg/mL (≈ 41.6 µM). Besides, in assay [9], the “MBC/ MIC ratio E. coli” value was determined as 4, the minimal bactericidal concentration (MBC) was 15.6 µg/mL (≈ 41.6 µM) and the MIC was 3.91 µg/mL (≈ 10.4 µM). In assay [10], the “MBC/ MIC ratio E. cloacae” value came out at 4, the minimum bactericidal concentration (MBC) came to 31.3 µg/mL (≈ 83.4 µM) and the MIC came to 7.81 µg/mL (≈ 20.8 µM). For the same compound, in [11], the “MBC/ MIC ratio B. pumilus” value amounted to 4, the MBC amounted to 62.5 µg/mL (≈ 166 µM) and the MIC was found to be 15.6 µg/mL (≈ 41.6 µM).
Consider `CC(=O)Oc1ccc(-c2c(C(N)=O)c(N)n(N)c(=O)c2C#N)cc1` [Compound 3e, 4-(1,6-diamino-5-carbamoyl-3-cyano-2-oxo-1,2-dihydropyridin-4-yl)phenyl acetate], for which the IC50 in assay [3] is 11.5 µM; in assay [7], 43.2 ± 1.7 µM. In assay [4], the “Time to bactericidal activity against E. coli” value is 90 to 120 min and 120 min. The “MFC/ MIC ratio C. albicans” value in [5] is reported as 2. For the same compound, the MFC in [5] (Candida albicans) and in [6] was 125 µg/mL throughout. The MIC in assay [5] (Candida albicans, read-out: MIC C. albicans, broth dilution) came to 62.5 µg/mL; in assay [6], 62.5 µg/mL; in assay [8] it was 31.3 µg/mL; in assay [9], 3.91 µg/mL; in assay [10], 15.6 µg/mL; in assay [11], 62.5 µg/mL. Besides, the “MFC/ MIC ratio S. cerevisiae” value in assay [6] was 2. Besides, the “MBC/ MIC ratio S. faecalis” value in assay [8] came out at 2. In addition, the minimal bactericidal concentration (MBC) in assay [8] was 62.5 µg/mL; in [9], 15.6 µg/mL; in assay [10], 62.5 µg/mL; in [11], 125 µg/mL. For the same compound, in assay [9], the “MBC/ MIC ratio E. coli” value came out at 4. In addition, in assay [10], the “MBC/ MIC ratio E. cloacae” value is reported as 4. Besides, in assay [11], the “MBC/ MIC ratio B. pumilus” value worked out at 2.
Turning to `CC1(C)S[C@@H]2[C@H](NC(=O)[C@H](N)c3ccc(O)cc3)C(=O)N2[C@H]1C(=O)O` [amoxicillin], the “MIC E. coli” value in [12] is 0.01 µM (≈ 3.65 ng/mL).
Take `C[C@@H]1[C@H](O)[C@@H](C)/C=C/C=C/C=C/C=C/C=C/C=C/C=C/[C@H](O[C@@H]2O[C@H](C)[C@@H](O)[C@H](N)[C@@H]2O)C[C@@H]2O[C@](O)(C[C@@H](O)C[C@@H](O)[C@H](O)CC[C@@H](O)C[C@@H](O)CC(=O)O[C@H]1C)C[C@H](O)[C@H]2C(=O)O` [amphotericin B]: the “MIC Aspergillus fumigatus” value in [13] is 1.95 µg/mL (≈ 2.11 µM). For the same compound, in assay [14], the “MIC C. albicans” value is 1.95 µg/mL (≈ 2.11 µM).
For the compound `N[C@@H](C(=O)N[C@@H]1C(=O)N2C(C(=O)O)=C(Cl)CS[C@H]12)c1ccccc1` [cefaclor], in [15], the “MIC S. aureus” value was 2.4 µg/mL (≈ 6.53 µM). Moreover, in assay [16], the “MIC B. subtilis” value was 2.4 µg/mL (≈ 6.53 µM).
Turning to `C[C@@H]1[C@H](O)[C@@H](C)/C=C/C=C/CC/C=C/C=C/C=C/C=C/C(O[C@H]2O[C@H](C)[C@@H](O)[C@H](N)[C@@H]2O)CC2O[C@](O)(CC(O)C(O)CCC(O)CC(O)CC(O)CC(=O)O[C@H]1C)CC(O)C2C(=O)O` (some centres unmarked) [nystatin], the “MIC C. albicans” value in assay [14] is 1.95 µg/mL (≈ 2.11 µM).
As to `CC1COc2c(N3CCN(C)CC3)c(F)cc3c(=O)c(C(=O)O)cn1c23` (centres unmarked) [ofloxacin], in assay [17], the “IZ E. coli” value is 24 mm.
Consider `[H]/N=C(/N)N[C@H]1[C@H](O)[C@@H](O)[C@H](O[C@@H]2O[C@@H](C)[C@](O)(C=O)[C@H]2O[C@@H]2O[C@@H](CO)[C@H](O)[C@@H](O)[C@@H]2NC)[C@@H](N/C(N)=N\[H])[C@@H]1O` [streptomycin], for which, in assay [17], the “IZ E. coli” value is recorded as 25 mm. Also, the “IZ Pseudomonas aeruginosa” value in [18] is 24 mm.
For `CN[C@H](CC(C)C)C(=O)N[C@H]1C(=O)N[C@@H](CC(N)=O)C(=O)N[C@H]2C(=O)N[C@H]3C(=O)N[C@H](C(=O)N[C@H](C(=O)O)c4cc(O)cc(O)c4-c4cc3ccc4O)[C@H](O)c3ccc(c(Cl)c3)Oc3cc2cc(c3O[C@@H]2O[C@H](CO)[C@@H](O)[C@H](O)[C@H]2O[C@H]2C[C@](C)(N)[C@H](O)[C@H](C)O2)Oc2ccc(cc2Cl)[C@H]1O` [vancomycin], the “MIC methicillin-resistant S. aureus” value in assay [19] is reported as 1 µg/mL (≈ 0.69 µM).
